Results published in patent US5502035A, “N-terminus modified analogs of LHRH” (Tap Holdings Inc., priority 1994, dated 1996).
Non-standard residues stand in square brackets, D forms with d. Residues, ends and D or L forms follow the SMILES beside them. *: point of attachment. dPhe(4-Cl) = N[C@H](Cc1ccc(Cl)cc1)C(=O)O; d2Nal = N[C@H](Cc1ccc2ccccc2c1)C(=O)O; Lys(iPr) = CC(C)NCCCC[C@H](N)C(=O)O; NMeY = CN[C@@H](Cc1ccc(O)cc1)C(=O)O; d3Pal = N[C@H](Cc1cccnc1)C(=O)O; Nicotinoyl = O=C(c1cccnc1)*; X1 = O=C([C@@H]1CCCO1)*; Sar = CNCC(=O)O

Molecular target: T1, LHRH (Rattus norvegicus, UniProt P30969)
T1 construct: endogenous in cells; host or cells: rat pituitary cells (own knowledge of the cited Haviv 1989 method)
T1 sequence (P30969 1-327): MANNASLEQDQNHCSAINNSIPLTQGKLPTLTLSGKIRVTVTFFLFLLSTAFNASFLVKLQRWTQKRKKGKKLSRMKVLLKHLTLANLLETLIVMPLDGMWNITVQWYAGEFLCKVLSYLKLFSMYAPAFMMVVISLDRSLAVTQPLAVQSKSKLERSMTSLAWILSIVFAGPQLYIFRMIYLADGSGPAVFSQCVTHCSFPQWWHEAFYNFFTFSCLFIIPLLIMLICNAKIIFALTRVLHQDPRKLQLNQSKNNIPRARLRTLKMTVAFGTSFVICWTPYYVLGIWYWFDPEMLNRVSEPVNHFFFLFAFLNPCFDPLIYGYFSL
Test: in vitro test for LHRH antagonist potency (pA2)
Format: cell-based
Details: negative logarithm of the antagonist concentration required to shift the response curve produced by the agonist leuprolide to two-fold higher concentration
Outline: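 Rat LHRH receptor in vitro functional test; pA2 = negative log of the antagonist concentration shifting the leuprolide agonist response curve to two-fold higher concentration.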

| Structure (SMILES) | Kb [nM] |
| --- | --- |
| CC(C)C[C@H](NC(=O)[C@@H](CCCCNC(=O)c1cccnc1)NC(=O)[C@H](Cc1ccc(O)cc1)N(C)C(=O)[C@H](CO)NC(=O)[C@@H](Cc1cccnc1)NC(=O)[C@@H](Cc1ccc(Cl)cc1)NC(=O)[C@@H](Cc1ccc2ccccc2c1)NC(=O)CN(C)C(=O)[C@@H]1CCCO1)C(=O)N[C@@H](CCCCNC(C)C)C(=O)N1CCC[C@H]1C(=O)N[C@H](C)C(N)=O [Example 99, N (S)-2-Tetrahydrofuroyl-Sar-D2Nal-D4ClPhe-D3Pal-Ser-NMeTyr-DLys(Nic),Leu-Lys(Isp)-Pro-DAlaNH2] (X1-[Sar][d2Nal][dPhe(4-Cl)][d3Pal]S[NMeY][dK](Nicotinoyl)L[Lys(iPr)]P[dA]-NH2) | 0.0117 |
| CC(C)C[C@H](NC(=O)[C@@H](CCCCNC(=O)c1cccnc1)NC(=O)[C@H](Cc1ccc(O)cc1)N(C)C(=O)[C@H](CO)NC(=O)[C@@H](Cc1cccnc1)NC(=O)[C@@H](Cc1ccc(Cl)cc1)NC(=O)[C@@H](C)NC(=O)CNC(=O)[C@@H]1CCCO1)C(=O)N[C@@H](CCCCNC(C)C)C(=O)N1CCC[C@H]1C(=O)N[C@H](C)C(N)=O [Example 100, N (S)-2-Tetrahydrofuroyl-Gly-DAla-D4ClPhe-D3Pal-Ser-NMeTyr-DLys(Nic)-Leu-Lys(Isp)-Pro-DAlaNH2] (X1-G[dA][dPhe(4-Cl)][d3Pal]S[NMeY][dK](Nicotinoyl)L[Lys(iPr)]P[dA]-NH2) | 21.9 |
| CC(C)C[C@H](NC(=O)[C@@H](CCCCNC(=O)c1cccnc1)NC(=O)[C@H](Cc1ccc(O)cc1)N(C)C(=O)[C@H](CO)NC(=O)[C@@H](Cc1cccnc1)NC(=O)[C@@H](Cc1ccc(Cl)cc1)NC(=O)CN(C)C(=O)CNC(=O)[C@@H]1CCCO1)C(=O)N[C@@H](CCCCNC(C)C)C(=O)N1CCC[C@H]1C(=O)N[C@H](C)C(N)=O [Example 101, N (S)-2-Tetrahydrofuroyl-Gly-Sar-D4ClPhe-D3Pal-Ser-NMeTyr-DLys(Nic)-Leu-Lys(Isp)-Pro-DAlaNH2] (X1-G[Sar][dPhe(4-Cl)][d3Pal]S[NMeY][dK](Nicotinoyl)L[Lys(iPr)]P[dA]-NH2) | 42.7 |
